# Measurements from ChEMBL document CHEMBL1201861, “Genomics of Drug Sensitity in Cancer screening data, Wellcome Trust Sanger Institute”.
# Tests used:
# [1] = test system: COR-L279; assay: SANGER: Inhibition of human COR-L279 cell growth in a cell viability assay.; type: functional, cell-based
# [2] = test system: DG-75; assay: cells; type: functional, cell-based; conditions: Homo sapiens;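 note: growth inhibition of DG-75 cells, read out with a cell viability assay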
# Description: SANGER: Inhibition of human DG-75 cell growth in a cell viability assay.
# [3] = test system: Daudi; assay: cells; type: functional, cell-based; conditions: Homo sapiens;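 note: growth inhibition of Daudi cells, read out by a viability assay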
# Description: SANGER: Inhibition of human Daudi cell growth in a cell viability assay.
# [4] = test system: EB-3; assay: cells; type: functional, cell-based; conditions: Homo sapiens;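 note: human EB-3 cells, growth inhibition read out via a cell viability assay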
# Description: SANGER: Inhibition of human EB-3 cell growth in a cell viability assay.
# [5] = test system: GDM-1; assay: cells; type: functional, cell-based; conditions: Homo sapiens;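 note: cell viability readout used to measure growth inhibition of human GDM-1 cells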
# Description: SANGER: Inhibition of human GDM-1 cell growth in a cell viability assay.
# [6] = test system: HCC1599; assay: cells; type: functional, cell-based; conditions: Homo sapiens;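 note: growth inhibition of HCC1599 cells, read out in a cell viability assay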
# Description: SANGER: Inhibition of human HCC1599 cell growth in a cell viability assay.
# [7] = test system: HuO9; assay: cells; type: functional, cell-based, Homo sapiens; conditions: Homo sapiens, HuO9;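 note: growth inhibition of HuO9 cells, read out with a cell viability assay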
# Description: SANGER: Inhibition of human HuO9 cell growth in a cell viability assay.
# [8] = test system: JIYOYE; assay: cells; type: functional, cell-based; conditions: Homo sapiens
# Description: SANGER: Inhibition of human JiyoyeP-2003 cell growth in a cell viability assay.
# [9] = test system: K052; assay: cells; type: functional, cell-based; conditions: Homo sapiens;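 note: Read-out from a cell viability assay, IC50 reflecting suppression of K052 cell growth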
# Description: SANGER: Inhibition of human K052 cell growth in a cell viability assay.
# [10] = test system: KARPAS-422; assay: cells; type: functional, cell-based; conditions: Homo sapiens
# Description: SANGER: Inhibition of human KARPAS-422 cell growth in a cell viability assay.
# [11] = test system: KMS-12-PE; assay: cells; type: functional, cell-based; conditions: Homo sapiens;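 note: growth inhibition of human KMS-12-PE cells, measured with a cell viability assay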
# Description: SANGER: Inhibition of human KMS-12-PE cell growth in a cell viability assay.
# [12] = test system: LC-1F; assay: cells; type: functional, cell-based; conditions: Homo sapiens;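 note: growth inhibition of human LC-1F cells, read out with a cell viability assay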
# Description: SANGER: Inhibition of human LC-1F cell growth in a cell viability assay.
# [13] = test system: LOUCY; assay: cells; type: functional, cell-based; conditions: Homo sapiens;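 note: growth inhibition of human LOUCY cells, read out with a cell viability assay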
# Description: SANGER: Inhibition of human LOUCY cell growth in a cell viability assay.
# [14] = test system: LP-1; assay: cells; type: functional, cell-based; conditions: Homo sapiens;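 note: growth inhibition of human LP-1 cells, with the read-out taken from a cell viability assay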
# Description: SANGER: Inhibition of human LP-1 cell growth in a cell viability assay.
# [15] = test system: LU-165; assay: cells; type: functional, cell-based; conditions: Homo sapiens
# Description: SANGER: Inhibition of human LU-165 cell growth in a cell viability assay.
# [16] = test system: MDA-MB-134-VI; assay: cells; type: functional, cell-based; conditions: Homo sapiens
# Description: SANGER: Inhibition of human MDA-MB-134-VI cell growth in a cell viability assay.
# [17] = test system: MHH-CALL-2; assay: cells; type: functional, cell-based; conditions: Homo sapiens;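 note: growth inhibition of the cell line, read out in a cell viability assay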
# Description: SANGER: Inhibition of human MHH-CALL-2 cell growth in a cell viability assay.
# [18] = test system: MONO-MAC-6; assay: cells; type: functional, cell-based; conditions: Homo sapiens;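 note: cell viability assay measuring growth inhibition of human MONO-MAC-6 cells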
# Description: SANGER: Inhibition of human MONO-MAC-6 cell growth in a cell viability assay.
# [19] = test system: NCI-H1417; assay: cells; type: functional, cell-based; conditions: Homo sapiens;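 note: human NCI-H1417 cells, growth inhibition determined with a cell viability readout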
# Description: SANGER: Inhibition of human NCI-H1417 cell growth in a cell viability assay.
# [20] = test system: NCI-H1436; assay: cells; type: functional, cell-based; conditions: Homo sapiens;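 note: growth suppression of human NCI-H1436 cells, determined with a cell viability readout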
# Description: SANGER: Inhibition of human NCI-H1436 cell growth in a cell viability assay.
# [21] = test system: NCI-H1694; assay: cells; type: functional, cell-based; conditions: Homo sapiens;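 note: cell viability assay measuring inhibition of growth in human NCI-H1694 cells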
# Description: SANGER: Inhibition of human NCI-H1694 cell growth in a cell viability assay.
# [22] = test system: NCI-H1703; assay: cells; type: functional, cell-based, Homo sapiens; conditions: Homo sapiens, NCI-H1703;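 note: growth inhibition of NCI-H1703 cells, read out via a cell viability assay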
# Description: SANGER: Inhibition of human NCI-H1703 cell growth in a cell viability assay.
# [23] = test system: NCI-H1882; assay: cells; type: functional, cell-based; conditions: Homo sapiens;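 note: growth inhibition of the cell line, determined with a viability assay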
# Description: SANGER: Inhibition of human NCI-H1882 cell growth in a cell viability assay.
# [24] = test system: NCI-H2009; assay: cells; type: functional, cell-based, Homo sapiens; conditions: Homo sapiens, NCI-H2009;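 note: cell viability assay measuring inhibition of NCI-H2009 cell growth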
# Description: SANGER: Inhibition of human NCI-H2009 cell growth in a cell viability assay.
# [25] = test system: NCI-H2081; assay: cells; type: functional, cell-based; conditions: Homo sapiens;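 note: growth inhibition of human NCI-H2081 cells, read out with a cell viability assay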
# Description: SANGER: Inhibition of human NCI-H2081 cell growth in a cell viability assay.
# [26] = test system: NCI-H2141; assay: cells; type: functional, cell-based; conditions: Homo sapiens;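 note: growth inhibition of human NCI-H2141 cells, read out with a cell viability assay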
# Description: SANGER: Inhibition of human NCI-H2141 cell growth in a cell viability assay.
# [27] = test system: NCI-H2171; assay: cells; type: functional, cell-based; conditions: Homo sapiens;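 note: growth inhibition of human NCI-H2171 cells, read out by a cell viability assay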
# Description: SANGER: Inhibition of human NCI-H2171 cell growth in a cell viability assay.
# [28] = test system: NCI-H630; assay: cells; type: functional, cell-based, Homo sapiens; conditions: Homo sapiens, NCI-H630;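 note: growth inhibition of NCI-H630 cells, read out with a cell viability assay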
# Description: SANGER: Inhibition of human NCI-H630 cell growth in a cell viability assay.
# [29] = test system: NCI-H719; assay: cells; type: functional, cell-based; conditions: Homo sapiens;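 note: growth inhibition of the cultured cell line, read out with a viability assay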
# Description: SANGER: Inhibition of human NCI-H719 cell growth in a cell viability assay.
# [30] = test system: SNU-16; assay: cells; type: functional, cell-based; conditions: Homo sapiens;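 note: growth inhibition of human SNU-16 cells, determined with a cell viability readout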
# Description: SANGER: Inhibition of human NCI-SNU-16 cell growth in a cell viability assay.
# [31] = test system: P31-FUJ; assay: cells; type: functional, cell-based; conditions: Homo sapiens;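 note: growth inhibition of P31-FUJ cells, read out with a viability assay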
# Description: SANGER: Inhibition of human P31-FUJ cell growth in a cell viability assay.
# [32] = test system: RL; assay: cells; type: functional, cell-based; conditions: Homo sapiens
# Description: SANGER: Inhibition of human RL cell growth in a cell viability assay.
# [33] = test system: RPMI-6666; assay: cells; type: functional, cell-based; conditions: Homo sapiens
# Description: SANGER: Inhibition of human RPMI-6666 cell growth in a cell viability assay.
# [34] = test system: Raji; assay: cells; type: functional, cell-based; conditions: Homo sapiens;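 note: cell viability assay measuring inhibition of Raji cell growth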
# Description: SANGER: Inhibition of human Raji cell growth in a cell viability assay.
# [35] = test system: SCC-3; assay: cells; type: functional, cell-based; conditions: Homo sapiens;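 note: cell viability assay measuring inhibition of SCC-3 cell growth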
# Description: SANGER: Inhibition of human SCC-3 cell growth in a cell viability assay.
# [36] = test system: SCLC-21H; assay: cells; type: functional, cell-based; conditions: Homo sapiens;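 note: growth inhibition of cultured human SCLC-21H cells, read out with a cell viability assay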
# Description: SANGER: Inhibition of human SCLC-21H cell growth in a cell viability assay.
# [37] = test system: SJRH30; assay: cells; type: functional, cell-based; conditions: Homo sapiens;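 note: growth inhibition of human SJRH30 cells, read out with a cell viability assay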
# Description: SANGER: Inhibition of human SJRH30 cell growth in a cell viability assay.
# [38] = test system: SK-MM-2; assay: cells; type: functional, cell-based; conditions: Homo sapiens;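 note: growth inhibition of human SK-MM-2 cells, read out with a cell viability assay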
# Description: SANGER: Inhibition of human SK-MM-2 cell growth in a cell viability assay.
# [39] = test system: SU-DHL-1; assay: SANGER: Inhibition of human SU-DHL-1 cell growth in a cell viability assay.; type: functional, cell-based
# [40] = test system: SUP-T1; assay: cells; type: functional, cell-based; conditions: Homo sapiens;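 note: growth inhibition of human SUP-T1 cells, read out as cell viability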
# Description: SANGER: Inhibition of human SUP-T1 cell growth in a cell viability assay.
# [41] = test system: ARH-77; assay: cells; type: functional, cell-based; conditions: Homo sapiens;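 note: growth inhibition of ARH-77 cells, read out by a cell viability assay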
# Description: SANGER: Inhibition of human ARH-77 cell growth in a cell viability assay.
# [42] = test system: BL-70; assay: SANGER: Inhibition of human BL-70 cell growth in a cell viability assay.; type: functional, cell-based
# [43] = test system: BOKU; assay: cells; type: functional, cell-based; conditions: Homo sapiens;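 note: growth inhibition of the human BOKU cell line, read out by a cell viability assay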
# Description: SANGER: Inhibition of human BOKU cell growth in a cell viability assay.
# [44] = test system: WSU-NHL; assay: cells; type: functional, cell-based; conditions: Homo sapiens;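 note: growth inhibition of human WSU-NHL cells, read out with a cell viability assay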
# Description: SANGER: Inhibition of human WSU-NHL cell growth in a cell viability assay.
# [45] = test system: CESS; assay: SANGER: Inhibition of human CESS cell growth in a cell viability assay.; type: functional, cell-based
compound,measurement,setting,value
COC(=O)CNC(=O)C(=O)OC,IC50,[1],> 4000 µM
same,IC50,[2],1050 µM
same,IC50,[3],68.3 µM
same,IC50,[4],49.6 µM
same,IC50,[5],121 µM
same,IC50,[6],129 µM
same,IC50,[7],589 µM
same,IC50,[8],291 µM
same,IC50,[9],171 µM
same,IC50,[10],162 µM
same,IC50,[11],628 µM
same,IC50,[12],> 4000 µM
same,IC50,[13],10.3 µM
same,IC50,[14],190 µM
same,IC50,[15],804 µM
same,IC50,[16],> 4000 µM
same,IC50,[17],173 µM
same,IC50,[18],202 µM
same,IC50,[19],2380 µM
same,IC50,[20],> 4000 µM
same,IC50,[21],291 µM
same,IC50,[22],1660 µM
same,IC50,[23],134 µM
same,IC50,[24],296 µM
same,IC50,[25],1010 µM
same,IC50,[26],351 µM
same,IC50,[27],> 4000 µM
same,IC50,[28],3880 µM
same,IC50,[29],566 µM
same,IC50,[30],> 4000 µM
same,IC50,[31],> 4000 µM
same,IC50,[32],601 µM
same,IC50,[33],228 µM
same,IC50,[34],609 µM
same,IC50,[35],1740 µM
same,IC50,[36],> 4000 µM
same,IC50,[37],1550 µM
same,IC50,[38],101 µM
same,IC50,[39],125 µM
same,IC50,[40],143 µM
same,IC50,[41],260 µM
same,IC50,[42],15.9 µM
same,IC50,[43],177 µM
same,IC50,[44],> 4000 µM
same,IC50,[45],60.8 µM
